Results taken from publication PMC9501983, “Transport and Permeation Properties of Dapivirine: Understanding Potential Drug-Drug Interactions” (Pharmaceutics, 2022).

Assays:
MRP1 [1] = tested on: MRP1; design: method as in PMID 26102284; settings: DPV at 10 μM; cited from earlier work
HEC-1-A cells = test: Tight junction disruption, TEER of HEC-1-A monolayers in Ussing chamber; assay type: cell-based, human; settings: apical treatment in HBSS without Ca/Mg; DPV 5 μM, MIC 5 μM, combination 5 μM each, EGTA 2 mM
Description: HEC-1-A cells were seeded at a density of 9000 cells per cm^2 onto 0.4 μm permeable snapwell inserts (Corning Inc., Corning, NY, USA). […] Only monolayers displaying TEER values above the threshold indicating confluency (130 Ωcm^2) were considered qualified to be used in this study.
To evaluate tight junction disruption, qualified HEC-1-A cell monolayers were mounted onto the Ussing Chamber apparatus (Physiologic Instruments, San Diego, CA, USA) to monitor TEER values. After equilibrating cells with HBSS at 37 °C for 20 min, buffer in basolateral chambers was replaced with HBSS without calcium or magnesium (HBSS Ca^−&Mg^−), while buffer in the apical chambers was replaced with respective treatment solution in HBSS Ca^−&Mg^-. Treatments included 5 μM DPV, 5 μM MIC, and 5 μM DPV with 5 μM MIC. 2 mM EGTA, a known tight junction disruptor that decreases TEER, was used as the positive control and blank HBSS Ca^-&Mg^- was used as negative control. Cells were incubated at 37 °C for 80 min and the obtained TEER values were normalized against initial measurements at time 0.

MRP4 = molecular target: T1, MRP4 (Homo sapiens, UniProt O15439); test: in vitro
T1 sequence (O15439 1-1325): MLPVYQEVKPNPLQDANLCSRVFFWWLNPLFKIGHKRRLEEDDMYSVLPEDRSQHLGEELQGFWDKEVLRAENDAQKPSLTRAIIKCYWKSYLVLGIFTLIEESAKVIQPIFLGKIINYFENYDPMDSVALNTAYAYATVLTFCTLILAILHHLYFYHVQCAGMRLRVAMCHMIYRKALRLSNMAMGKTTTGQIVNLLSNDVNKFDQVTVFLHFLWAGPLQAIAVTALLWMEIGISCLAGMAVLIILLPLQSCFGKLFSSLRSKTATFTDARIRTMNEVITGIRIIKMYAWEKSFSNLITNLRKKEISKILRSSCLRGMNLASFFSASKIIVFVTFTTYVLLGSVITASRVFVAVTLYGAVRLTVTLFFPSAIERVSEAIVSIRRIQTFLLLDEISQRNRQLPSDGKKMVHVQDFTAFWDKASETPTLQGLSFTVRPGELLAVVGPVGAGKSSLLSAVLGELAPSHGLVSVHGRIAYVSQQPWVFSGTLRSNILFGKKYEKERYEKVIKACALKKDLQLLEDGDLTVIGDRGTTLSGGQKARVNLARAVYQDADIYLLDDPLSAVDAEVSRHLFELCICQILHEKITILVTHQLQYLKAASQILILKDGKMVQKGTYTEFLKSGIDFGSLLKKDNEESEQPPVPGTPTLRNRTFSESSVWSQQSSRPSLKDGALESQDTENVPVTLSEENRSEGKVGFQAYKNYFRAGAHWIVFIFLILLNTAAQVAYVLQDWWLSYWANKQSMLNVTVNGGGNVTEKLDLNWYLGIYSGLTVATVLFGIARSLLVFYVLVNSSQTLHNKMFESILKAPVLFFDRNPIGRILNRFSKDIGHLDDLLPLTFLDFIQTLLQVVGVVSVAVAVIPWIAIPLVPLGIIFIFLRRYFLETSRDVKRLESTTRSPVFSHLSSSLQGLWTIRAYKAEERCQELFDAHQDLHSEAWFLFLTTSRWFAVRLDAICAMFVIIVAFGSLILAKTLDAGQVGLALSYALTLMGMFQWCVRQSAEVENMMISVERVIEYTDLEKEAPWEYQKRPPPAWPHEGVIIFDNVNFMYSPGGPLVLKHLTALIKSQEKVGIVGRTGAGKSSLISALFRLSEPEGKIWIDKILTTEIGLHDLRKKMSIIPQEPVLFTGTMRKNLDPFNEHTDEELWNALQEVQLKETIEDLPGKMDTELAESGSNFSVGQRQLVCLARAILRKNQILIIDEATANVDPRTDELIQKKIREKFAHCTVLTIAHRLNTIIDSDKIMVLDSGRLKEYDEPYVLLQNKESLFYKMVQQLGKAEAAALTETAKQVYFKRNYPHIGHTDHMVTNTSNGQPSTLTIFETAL
Description: (§1) To investigate if DPV was a substrate or inhibitor of MRP1 or MRP4, ATP-dependent and independent uptake of DPV (in the substrate study) or estradiol 17 β-D-glucuronide (a known MRP1/MRP4 substrate in the inhibitor study) was measured using 50 μg MRP1, MRP4, and control vesicles. […] The uptake assay was performed at a total volume of 50 μL with either 4 mM ATP or AMP, 2 mM glutathione, 10 μM DPV or estradiol 17 β-D-glucuronide as substrates, with and without 20 μM DPV or MK571 as inhibitors. […] To quantify the uptake amount of DPV or estradiol 17 β-D-glucuronide, 4 μCi mL^−1 3H-DPV or ^3H- estradiol 17 β-D-glucuronide was added to the assay mixture.
(§2) The vesicular uptake assays were performed under the above-mentioned conditions. The membrane vesicles were first incubated with respective inhibitor solution or blank assay buffer. The reaction was then initiated by adding the remaining components of the assay mixture to the vesicles and incubated at 37 °C for 3 min. To terminate the reaction, 200 μL ice-cold buffer was added to each well. The samples were then transferred to a glass fiber filter plate and washed 5 times by rapid filtration using a vacuum manifold (IBI Scientific, Dubuque, IA, USA). To quantify ^3H-DPV and ^3H-estradiol 17 β-D-glucuronide uptake, the washed vesicles were lysed with scintillation cocktail at room temperature for 20 min. The collected samples were analyzed on an LS6500 liquid scintillation counter (Beckman Coulter, Brea, CA, USA).
(§3) If ATP-dependent uptake was observed, the uptake amount by active transport was calculated using Equation (1):(1) Normalized uptake=mean uptake with ATP−mean uptake with AMP

MRP1 [2] = molecular target: MRP1 (Homo sapiens, UniProt P33527)
Sequence of MRP1 (Homo sapiens, UniProt P33527) (P33527 whole entry): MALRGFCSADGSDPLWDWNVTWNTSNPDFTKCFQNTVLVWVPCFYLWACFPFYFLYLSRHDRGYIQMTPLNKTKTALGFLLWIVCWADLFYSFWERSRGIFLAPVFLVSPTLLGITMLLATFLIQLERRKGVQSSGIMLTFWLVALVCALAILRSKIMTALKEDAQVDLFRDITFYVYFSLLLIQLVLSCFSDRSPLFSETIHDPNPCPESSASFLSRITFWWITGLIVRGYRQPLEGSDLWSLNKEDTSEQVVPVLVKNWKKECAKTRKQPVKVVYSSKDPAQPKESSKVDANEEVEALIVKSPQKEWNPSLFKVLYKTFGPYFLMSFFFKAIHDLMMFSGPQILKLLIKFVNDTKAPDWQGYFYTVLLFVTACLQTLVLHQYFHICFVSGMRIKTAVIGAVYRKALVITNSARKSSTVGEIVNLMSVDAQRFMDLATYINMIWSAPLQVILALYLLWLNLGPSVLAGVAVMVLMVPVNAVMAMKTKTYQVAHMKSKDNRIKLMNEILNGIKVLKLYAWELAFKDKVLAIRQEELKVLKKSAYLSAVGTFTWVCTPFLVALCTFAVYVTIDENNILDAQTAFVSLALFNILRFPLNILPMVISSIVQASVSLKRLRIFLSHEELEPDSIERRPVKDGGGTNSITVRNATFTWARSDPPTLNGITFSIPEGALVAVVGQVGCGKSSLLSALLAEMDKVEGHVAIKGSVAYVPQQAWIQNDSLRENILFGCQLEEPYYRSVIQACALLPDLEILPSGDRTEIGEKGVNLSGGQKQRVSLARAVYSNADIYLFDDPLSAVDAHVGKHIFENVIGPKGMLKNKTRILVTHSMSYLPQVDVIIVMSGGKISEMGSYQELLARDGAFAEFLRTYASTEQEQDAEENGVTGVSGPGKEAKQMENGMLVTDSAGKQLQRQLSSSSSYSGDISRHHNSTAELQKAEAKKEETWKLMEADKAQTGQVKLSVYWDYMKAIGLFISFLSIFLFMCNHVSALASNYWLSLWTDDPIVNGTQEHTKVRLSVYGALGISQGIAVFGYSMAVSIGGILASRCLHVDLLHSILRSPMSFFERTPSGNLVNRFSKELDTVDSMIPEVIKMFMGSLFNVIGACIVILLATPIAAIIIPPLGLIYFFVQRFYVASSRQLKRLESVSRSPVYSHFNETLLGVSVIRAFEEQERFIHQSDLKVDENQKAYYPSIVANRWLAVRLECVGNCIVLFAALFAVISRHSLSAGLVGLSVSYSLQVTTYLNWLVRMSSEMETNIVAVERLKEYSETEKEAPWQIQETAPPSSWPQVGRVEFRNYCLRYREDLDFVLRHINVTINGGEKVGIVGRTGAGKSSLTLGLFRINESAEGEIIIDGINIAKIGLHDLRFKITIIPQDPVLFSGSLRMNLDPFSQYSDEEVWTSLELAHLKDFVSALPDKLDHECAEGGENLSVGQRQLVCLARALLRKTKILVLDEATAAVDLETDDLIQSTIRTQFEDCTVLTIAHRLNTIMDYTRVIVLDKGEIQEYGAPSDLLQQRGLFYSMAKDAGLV
Description: as §1, §2, §3

[3] = 10 μM substrate, 20 μM test inhibitor, ATP minus AMP

SMILES: Cc1cc(C)c(Nc2ccnc(Nc3ccc(C#N)cc3)n2)c(C)c1 [DPV, dapivirine]
- Effect on MRP1 expression level (MRP1 [1]): upregulated
- Relative TEER percentage of baseline value at 80 min (HEC-1-A cells): 94.7 ± 7.8%
- Substrate status for MRP4 (MRP4): not a substrate
- Normalized estradiol 17 β-D-glucuronide uptake by MRP4 vesicles co-incubated with inhibitor (MRP4; [3]): 14.08 fmol
- Active uptake of estradiol 17 β-D-glucuronide by MRP4 vesicles, reduced to % of control (MRP4; 20 µM): not significantly affected
- Substrate status for MRP1 (MRP1 [2]): not a substrate
- Normalized estradiol 17 β-D-glucuronide uptake by MRP1 vesicles co-incubated with inhibitor (MRP1 [2]; [3]): 35.83 fmol
- Active uptake of estradiol 17 β-D-glucuronide by MRP1 vesicles, reduced to % of control (MRP1 [2]; 20 µM): not significantly affected
